# From patent US20120252729A1, “PTH-CONTAINING THERAPEUTIC/PROPHYLACTIC AGENT FOR OSTEOPOROSIS, CHARACTERIZED IN THAT PTH IS ADMINISTERED ONCE A WEEK IN A UNIT DOSE OF 100 TO 200 UNITS” (ASAHI KASEI PHARMA CORPORATION, priority 2009, published 2012)
# Experiments:
# [1] = tested on: high-risk patients diagnosed with primary osteoporosis; test: Working Example 2: new (incl. multiple, new+worsening) vertebral fractures by x-ray, test drug 200 units once a week for 72 weeks vs placebo; format: in vivo, human
# Excerpt: The above patients also took two tablets of a calcium agent once a day after dinner. […] The preparation contained precipitated calcium carbonate, magnesium carbonate, cholecalciferol (vitamin D3), and the like as components and is marketed under the trade name New Calcichew (trademark) D3″ (sold by: Daiichi Sankyo Health Care, manufactured and sold by: Nitto Pharmaceutical Industries, Ltd.).
# (§1) The incidence of bone fractures was checked by frontal and lateral x-rays of the fourth thoracic to the fourth lumbar spine taken at the start and every 24 weeks thereafter.
# Here, “multiple vertebral fractures” was defined as two or more new vertebral fractures. When the incidence of multiple vertebral fractures (number of cases) was compared in the test drug group (n=261) and control group (n=281) after 72 weeks of administration, it was 2.1% (6 cases) in the control group and 0.8% (2 cases) in the test drug group.
# [2] = tested on: high-risk patients diagnosed with primary osteoporosis; test: Working Example 2: worsening vertebral fractures; format: in vivo, human; settings: 200 units weekly, FAS
# Excerpt: The vertebral fractures in the present invention also include both new fractures and worsening fractures. […] New and worsening [fractures] can be classified by the grade increase pattern according to the criteria of Genant. Concretely speaking, a fracture is diagnosed as a new fracture when a change is found from grade 0 to grade 1, 2, or 3. It can be regarded as a worsening fracture when a change is found from grade 1 to grade 2 or 3 or from grade 2 to grade 3. The vertebral height was measured according to the method of Inoue et al. (Non-patent reference 35) and the method of Hayashi et al. (Non-patent Reference 36) to accurately assess the changes in grade.
# as §1
# The efficacy of the test drug on worsening bone fractures was studied.
# [3] = tested on: high-risk patients diagnosed with primary osteoporosis; test: Working Example 2: CT geometry of the proximal femur (neck, trochanter, shaft); format: in vivo, human; settings: 200 units weekly
# Experimental: For the CT geometry, the proximal part of the femur was measured at the start and after 48 and 72 weeks using multislice CT scan.
# The effects of the test drug on three parts of the femur (neck of the femur, trochanter, and shaft of the femur) were studied using ordinary CT scans.
# [4] = in vivo
# Experimental: The Lumbar spine bone mineral density and occurrence of bone fractures were checked as bone assessments. For the Lumbar spine bone mineral density, the bone density of the second to fourth lumbar spine was measured at the start and every six months thereafter using dual-energy x-ray absorptiometry (DXA). For the frequency of bone fractures, x-rays were taken from the front and side of the fourth thoracic to the fifth lumbar spine at the start and every six months thereafter, and new vertebral fractures were assessed by comparison of the roentgen films at the start and at each point in time thereafter using the method of Genant et al. (Non-patent Reference 14) as a reference. In locations other than the vertebrae, fractures were evaluated by checking by roentgen films. Blood samples were also taken from all patients at the beginning and during administration, and the general laboratory test values, including the calcium concentration, were measured. The administration period in high-risk patients (DXA and new vertebral fractures were assessed collectively at the center; fractures of other than vertebrae were assessed by the investigator based on the roentgen films) was 85.1±20.8 weeks in the 5 unit group and 83.7±19.8 weeks in the 100 unit group. […] The administration period in low-risk patients was 72.7±19.4 weeks in the 5 unit group and 88.3±21.3 weeks in the 100 unit group.
# [5] = in vivo; remark: listed apart in the source
# Experimental: The ratio of the urinary calcium value/urinary creatine value was compared before beginning administration and in the weeks of observation. The urinary calcium was measured at the start, after 12 weeks, after 24 weeks, after 48 weeks, and after 72 weeks.
# [6] = 200 units weekly, 72 weeks, No. of fractures: five or more
# [7] = 200 units weekly, 72 weeks, No. of fractures: four
# [8] = 200 units weekly, 72 weeks, No. of fractures: none
# [9] = 200 units weekly, 72 weeks, No. of fractures: one
# [10] = 200 units weekly, 72 weeks, No. of fractures: three
# [11] = 200 units weekly, 72 weeks, No. of fractures: two
# [12] = 200 units weekly, after 72 weeks, n=261
# [13] = 200 units weekly, history of Alfacalcidol
# [14] = 200 units weekly, history of calcitriol
# [15] = 200 units weekly, history of calcium L-aspartate
# [16] = 200 units weekly, history of calcium lactate
# [17] = 200 units weekly, history of elcatonin
# [18] = 200 units weekly, history of menatetrenone
# [19] = 200 units weekly, history of raloxifene hydrochloride
# [20] = 200 units weekly, patients taking glucocorticoid
substance,measurement,setting,value
teriparatide acetate,Occurrence of new vertebral fractures after 48 weeks,"[1]; 200 units weekly, 48 to 72 weeks",no new vertebral fractures occurred after 48 weeks
same,New vertebral fractures: Incidence (%),[1]; [6],0.0%
same,New vertebral fractures: No. of subjects,[1]; [6],0
same,New vertebral fractures: Incidence (%),[1]; [7],0.0%
same,New vertebral fractures: No. of subjects,[1]; [7],0
same,New vertebral fractures: Incidence (%),[1]; [8],97.3%
same,New vertebral fractures: No. of subjects,[1]; [8],254
same,New vertebral fractures: Incidence (%),[1]; [9],1.9%
same,New vertebral fractures: No. of subjects,[1]; [9],5
same,New vertebral fractures: Incidence (%),[1]; [10],0.0%
same,New vertebral fractures: No. of subjects,[1]; [10],0
same,New vertebral fractures: Incidence (%),[1]; [11],0.8%
same,New vertebral fractures: No. of subjects,[1]; [11],2
same,Lowering of the risk of vertebral fractures (new+worsening) in comparison to the placebo,"[1]; 200 units weekly, after 72 weeks",78.6%
same,Incidence of vertebral fractures (new+worsening) by Kaplan-Meier estimation,"[1]; 200 units weekly, after 72 weeks, FAS",3.5%
same,Incidence of multiple vertebral fractures (two or more new vertebral fractures),[1]; [12],0.8%
same,"Multiple vertebral fractures, number of cases",[1]; [12],2 cases
same,New vertebral fractures: No. with fractures,"[1]; 200 units weekly, complication (diabetes): no",7
same,Incidence of new vertebrae fractures (%),"[1]; 200 units weekly, complication (diabetes): no, after 24 W",2.8%
same,Incidence of new vertebrae fractures (%),"[1]; 200 units weekly, complication (diabetes): no, after 48 W",3.3%
same,Incidence of new vertebrae fractures (%),"[1]; 200 units weekly, complication (diabetes): no, after 72 W",3.3%
same,New vertebral fractures: No. with fractures,"[1]; 200 units weekly, complication (diabetes): yes",0
same,Incidence of new vertebrae fractures (%),"[1]; 200 units weekly, complication (diabetes): yes, after 24 W",0.0%
same,Incidence of new vertebrae fractures (%),"[1]; 200 units weekly, complication (diabetes): yes, after 48 W",0.0%
same,Incidence of new vertebrae fractures (%),"[1]; 200 units weekly, complication (diabetes): yes, after 72 W",0.0%
same,New vertebral fractures: No. with fractures,"[1]; 200 units weekly, complication (hyperlipidemia): no",4
same,Incidence of new vertebrae fractures (%),"[1]; 200 units weekly, complication (hyperlipidemia): no, after 24 W",2.2%
same,Incidence of new vertebrae fractures (%),"[1]; 200 units weekly, complication (hyperlipidemia): no, after 48 W",3.0%
same,Incidence of new vertebrae fractures (%),"[1]; 200 units weekly, complication (hyperlipidemia): no, after 72 W",3.0%
same,New vertebral fractures: No. with fractures,"[1]; 200 units weekly, complication (hyperlipidemia): yes",3
same,Incidence of new vertebrae fractures (%),"[1]; 200 units weekly, complication (hyperlipidemia): yes, after 24 W",3.2%
same,Incidence of new vertebrae fractures (%),"[1]; 200 units weekly, complication (hyperlipidemia): yes, after 48 W",3.2%
same,Incidence of new vertebrae fractures (%),"[1]; 200 units weekly, complication (hyperlipidemia): yes, after 72 W",3.2%
same,New vertebral fractures: No. with fractures,"[1]; 200 units weekly, complication (hypertension): no",3
same,Incidence of new vertebrae fractures (%),"[1]; 200 units weekly, complication (hypertension): no, after 24 W",2.1%
same,Incidence of new vertebrae fractures (%),"[1]; 200 units weekly, complication (hypertension): no, after 48 W",3.1%
same,Incidence of new vertebrae fractures (%),"[1]; 200 units weekly, complication (hypertension): no, after 72 W",3.1%
same,New vertebral fractures: No. with fractures,"[1]; 200 units weekly, complication (hypertension): yes",4
same,Incidence of new vertebrae fractures (%),"[1]; 200 units weekly, complication (hypertension): yes, after 24 W",3.1%
same,Incidence of new vertebrae fractures (%),"[1]; 200 units weekly, complication (hypertension): yes, after 48 W",3.1%
same,Incidence of new vertebrae fractures (%),"[1]; 200 units weekly, complication (hypertension): yes, after 72 W",3.1%
same,Incidence of new vertebral fractures (%),"[1]; 200 units weekly, creatinine clearance abnormal (<80), after 24 W",2.8%
same,Incidence of new vertebral fractures (%),"[1]; 200 units weekly, creatinine clearance abnormal (<80), after 48 W",3.4%
same,Incidence of new vertebral fractures (%),"[1]; 200 units weekly, creatinine clearance abnormal (<80), after 72 W",3.4%
same,New vertebral fractures: No. with fractures,"[1]; 200 units weekly, creatinine clearance at start abnormal (<80)",6
same,New vertebral fractures: No. with fractures,"[1]; 200 units weekly, creatinine clearance at start normal (≧80)",0
same,Incidence of new vertebral fractures (%),"[1]; 200 units weekly, creatinine clearance normal (≧80), after 24 W",0.0%
same,Incidence of new vertebral fractures (%),"[1]; 200 units weekly, creatinine clearance normal (≧80), after 48 W",0.0%
same,Incidence of new vertebral fractures (%),"[1]; 200 units weekly, creatinine clearance normal (≧80), after 72 W",0.0%
same,New vertebral fractures: no (patients),[1]; [13],62
same,New vertebral fractures: yes (patients),[1]; [13],1
same,New vertebral fractures: no (patients),[1]; [14],7
same,New vertebral fractures: yes (patients),[1]; [14],1
same,New vertebral fractures: no (patients),[1]; [15],28
same,New vertebral fractures: yes (patients),[1]; [15],1
same,New vertebral fractures: no (patients),[1]; [16],8
same,New vertebral fractures: yes (patients),[1]; [16],0
same,New vertebral fractures: no (patients),[1]; [17],35
same,New vertebral fractures: yes (patients),[1]; [17],2
same,New vertebral fractures: no (patients),[1]; [18],6
same,New vertebral fractures: yes (patients),[1]; [18],0
same,New vertebral fractures: no (patients),[1]; [19],20
same,New vertebral fractures: yes (patients),[1]; [19],0
same,"Existence of new vertebral fractures, Fracture: no (patients)",[1]; [20],29
same,"Existence of new vertebral fractures, Fracture: yes (patients)",[1]; [20],0
same,New vertebral fractures: No. with fractures,"[1]; 200 units weekly, prior osteoporosis treatment (no)",4
same,Incidence of new vertebral fractures (%),"[1]; 200 units weekly, prior osteoporosis treatment (no), after 24 W",2.4%
same,Incidence of new vertebral fractures (%),"[1]; 200 units weekly, prior osteoporosis treatment (no), after 48 W",3.2%
same,Incidence of new vertebral fractures (%),"[1]; 200 units weekly, prior osteoporosis treatment (no), after 72 W",3.2%
same,New vertebral fractures: No. with fractures,"[1]; 200 units weekly, prior osteoporosis treatment (yes)",3
same,Incidence of new vertebral fractures (%),"[1]; 200 units weekly, prior osteoporosis treatment (yes), after 24 W",2.9%
same,Incidence of new vertebral fractures (%),"[1]; 200 units weekly, prior osteoporosis treatment (yes), after 48 W",2.9%
same,Incidence of new vertebral fractures (%),"[1]; 200 units weekly, prior osteoporosis treatment (yes), after 72 W",2.9%
same,"New vertebral fractures, No. with fractures","[1]; FAS, 72 weeks",7
same,"New vertebral fractures, No. with fractures",[1]; time after administration >24 W-≦48 W,2
same,"New vertebral fractures, No. with fractures",[1]; time after administration >48 W-≦72 W,0
same,"New vertebral fractures, No. with fractures",[1]; time after administration ≦24 W,6
same,"Difference between test drug group and control group after 72 W (%), incidence of worsening fractures",[2],1.8%
same,Worsening fractures: No. with fractures,[2],1
same,Incidence of worsening fractures (%),[2]; after 24 W,0.4%
same,Incidence of worsening fractures (%),[2]; after 48 W,0.4%
same,Incidence of worsening fractures (%),[2]; after 72 W,0.4%
same,"Maximum section modulus (SM (Z min)), change from baseline after 48 weeks (%)",[3]; neck of femur,3.43%
same,"Maximum section modulus (SM (Z min)), change from baseline after 72 weeks (%)",[3]; neck of femur,1.87%
same,"Volume bone mineral density (cortical bone) [vBMD cortical], change from baseline after 48 weeks (%)",[3]; neck of femur,−0.77%
same,"Volume bone mineral density (cortical bone) [vBMD cortical], change from baseline after 72 weeks (%)",[3]; neck of femur,−1.14%
same,"Volume bone mineral density (total) [vBMD total], change from baseline after 48 weeks (%)",[3]; neck of femur,0.92%
same,"Volume bone mineral density (total) [vBMD total], change from baseline after 72 weeks (%)",[3]; neck of femur,0.15%
same,"Maximum section modulus (SM (Z min)), change from baseline after 48 weeks (%)",[3]; shaft of femur,1.28%
same,"Maximum section modulus (SM (Z min)), change from baseline after 72 weeks (%)",[3]; shaft of femur,2.69%
same,"Volume bone mineral density (cortical bone) [vBMD cortical], change from baseline after 48 weeks (%)",[3]; shaft of femur,0.59%
same,"Volume bone mineral density (cortical bone) [vBMD cortical], change from baseline after 72 weeks (%)",[3]; shaft of femur,0.18%
same,"Volume bone mineral density (total) [vBMD total], change from baseline after 48 weeks (%)",[3]; shaft of femur,1.03%
same,"Volume bone mineral density (total) [vBMD total], change from baseline after 72 weeks (%)",[3]; shaft of femur,1.25%
same,"Maximum section modulus (SM (Z min)), change from baseline after 48 weeks (%)",[3]; trochanter,5.19%
same,"Maximum section modulus (SM (Z min)), change from baseline after 72 weeks (%)",[3]; trochanter,3.20%
same,"Volume bone mineral density (cortical bone) [vBMD cortical], change from baseline after 48 weeks (%)",[3]; trochanter,−0.49%
same,"Volume bone mineral density (cortical bone) [vBMD cortical], change from baseline after 72 weeks (%)",[3]; trochanter,−1.49%
same,"Volume bone mineral density (total) [vBMD total], change from baseline after 48 weeks (%)",[3]; trochanter,1.36%
same,"Volume bone mineral density (total) [vBMD total], change from baseline after 72 weeks (%)",[3]; trochanter,0.95%
same,Hypercalcemia during the administration period,[4],did not cause hypercalcemia at either dose
same,Average percentage change in the urinary calcium value,[5],3.2%
same,Median percentage change in the urinary calcium value,[5],−14.7%
